US11040981B2, “Pyrrolotriazine compounds and methods of inhibiting TAM kinases” (Syros Pharmaceuticals, Inc., priority 2017, dated 2021)

How the values were obtained:
[1] = molecular target: T1, AXL (Homo sapiens, UniProt P30530); assay: TR-FRET kinase activity assay, AXL; type: biochemical; settings: ATP at Km, 60 minutes
T1 sequence (P30530 26-894): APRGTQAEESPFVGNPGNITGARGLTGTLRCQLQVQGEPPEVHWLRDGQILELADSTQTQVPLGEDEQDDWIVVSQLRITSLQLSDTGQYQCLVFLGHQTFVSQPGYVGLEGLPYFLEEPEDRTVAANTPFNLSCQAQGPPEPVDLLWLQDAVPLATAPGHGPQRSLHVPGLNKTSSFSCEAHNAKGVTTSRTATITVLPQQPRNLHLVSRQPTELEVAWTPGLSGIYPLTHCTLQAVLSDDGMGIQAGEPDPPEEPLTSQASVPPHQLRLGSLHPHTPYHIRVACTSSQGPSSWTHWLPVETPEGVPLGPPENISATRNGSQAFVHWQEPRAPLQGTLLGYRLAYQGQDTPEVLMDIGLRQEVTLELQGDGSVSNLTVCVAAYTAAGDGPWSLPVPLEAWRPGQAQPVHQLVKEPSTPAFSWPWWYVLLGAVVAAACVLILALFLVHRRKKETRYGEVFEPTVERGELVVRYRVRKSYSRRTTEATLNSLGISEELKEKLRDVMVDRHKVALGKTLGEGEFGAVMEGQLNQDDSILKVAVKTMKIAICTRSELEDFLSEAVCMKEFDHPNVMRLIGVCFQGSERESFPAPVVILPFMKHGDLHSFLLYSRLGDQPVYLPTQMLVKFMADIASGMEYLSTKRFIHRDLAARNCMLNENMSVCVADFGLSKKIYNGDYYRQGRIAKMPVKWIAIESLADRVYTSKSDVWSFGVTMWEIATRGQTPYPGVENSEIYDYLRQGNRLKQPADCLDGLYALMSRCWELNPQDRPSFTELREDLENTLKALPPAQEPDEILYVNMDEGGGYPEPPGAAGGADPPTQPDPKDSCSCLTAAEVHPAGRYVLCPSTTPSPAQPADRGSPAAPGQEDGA
Procedure, shortened: (§1)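 Compounds were tested against each kinase with ATP set at its own Km and a labelled tyrosine peptide substrate. Following one hour at room temperature in buffer containing 10 mM MgCl2 and 1 mM DTT, phosphorylated product was detected by Europium antibody TR-FRET after EDTA quench, and IC50 values were calculated.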

[2] = molecular target: T2, FLT3 (Homo sapiens, UniProt P36888); assay: TR-FRET kinase activity assay, FLT3; type: biochemical; settings: ATP at Km, 60 minutes
T2 sequence (P36888 27-993): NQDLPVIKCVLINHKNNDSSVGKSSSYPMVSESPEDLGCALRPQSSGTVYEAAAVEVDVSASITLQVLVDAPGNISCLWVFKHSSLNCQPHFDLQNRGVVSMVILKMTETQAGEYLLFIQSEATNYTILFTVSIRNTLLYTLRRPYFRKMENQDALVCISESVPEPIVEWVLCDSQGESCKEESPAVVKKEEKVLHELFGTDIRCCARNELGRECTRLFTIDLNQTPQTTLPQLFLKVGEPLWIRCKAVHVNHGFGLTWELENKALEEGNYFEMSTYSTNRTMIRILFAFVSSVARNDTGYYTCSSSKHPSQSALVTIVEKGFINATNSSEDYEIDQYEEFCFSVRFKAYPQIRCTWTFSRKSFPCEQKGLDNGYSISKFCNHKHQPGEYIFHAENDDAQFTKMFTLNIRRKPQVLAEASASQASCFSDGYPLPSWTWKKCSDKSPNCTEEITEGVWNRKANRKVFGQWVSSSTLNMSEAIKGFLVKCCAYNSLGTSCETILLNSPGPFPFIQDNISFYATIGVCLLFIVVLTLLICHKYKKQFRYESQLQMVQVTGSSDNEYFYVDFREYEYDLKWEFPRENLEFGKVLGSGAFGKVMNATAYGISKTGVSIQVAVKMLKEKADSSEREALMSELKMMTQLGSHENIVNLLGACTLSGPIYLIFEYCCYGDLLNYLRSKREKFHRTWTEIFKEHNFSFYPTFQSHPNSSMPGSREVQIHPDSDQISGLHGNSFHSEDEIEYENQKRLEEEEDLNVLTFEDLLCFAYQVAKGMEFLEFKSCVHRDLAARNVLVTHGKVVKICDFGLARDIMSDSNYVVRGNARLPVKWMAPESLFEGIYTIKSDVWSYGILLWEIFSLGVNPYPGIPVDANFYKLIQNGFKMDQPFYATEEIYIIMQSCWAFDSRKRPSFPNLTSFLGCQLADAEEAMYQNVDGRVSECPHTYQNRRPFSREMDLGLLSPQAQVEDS
Procedure, shortened: as §1

| SMILES | IC50 [1] | IC50 [2] |
| --- | --- | --- |
| COC[C@H](C)Nc1ncc2c(-c3cnccc3C)cc([C@H]3CC[C@H](O)CC3)n2n1 [Compound 168] | 1 to 10 µM | 1 to 10 µM |
| COC[C@H](C)Nc1ncc2c(C3=CC4CCC(C3)N4)cc([C@H]3CC[C@H](O)CC3)n2n1 (stereo partly drawn) [Compound 170] | ≤ 0.1 µM | 1 to 10 µM |
| COC[C@H](C)Nc1ncc2c(-c3cnn(CC(=O)NS(C)(=O)=O)c3)cc([C@H]3CC[C@H](O)CC3)n2n1 [Compound 174] | 0.1 to 1 µM | 1 to 10 µM |
| COC[C@H](C)N(C)c1ncc2c(-c3ccnc(C)c3)cc([C@H]3CC[C@H](O)CC3)n2n1 [Compound 175, (trans)-4-(2-(((S)-1-methoxypropan-2-yl)(methyl)amino)-5-(2-methylpyridin-4-yl)pyrrolo[2,1-f][1,2,4]triazin-7-yl)cyclohexanol] | 1 to 10 µM | 1 to 10 µM |
| COC[C@H](C)N(C)c1ncc2c(-c3ccnc(C)c3)cc([C@H]3CC[C@H](OC)CC3)n2n1 [Compound 176, 7-((trans)-4-methoxycyclohexyl)-N-((S)-1-methoxypropan-2-yl)-N-methyl-5-(2-methylpyridin-4-yl)pyrrolo[2,1-f][1,2,4]triazin-2-amine] | 1 to 10 µM | 1 to 10 µM |
| COC[C@H](C)Nc1ncc2c(N3CCCC3=O)cc([C@H]3CC[C@H](O)CC3)n2n1 [Compound 177] | 1 to 10 µM | 1 to 10 µM |
| COC[C@H](C)Nc1ncc2c(N3CC4(COC4)CC3=O)cc([C@H]3CC[C@H](O)CC3)n2n1 [Compound 178] | 1 to 10 µM | 1 to 10 µM |
| COC[C@H](C)Nc1ncc2c(-c3cccc(CN4CCCC4)c3)cc([C@H]3CC[C@H](O)CC3)n2n1 [Compound 179] | 0.1 to 1 µM | 0.1 to 1 µM |
| COCC(C)Nc1ncc2c(-c3ccc(C(C)N4CCOCC4)cc3)cc(C3CCC(O)CC3)n2n1 (stereo not drawn) [Compound 181] | 0.1 to 1 µM | ≤ 0.1 µM |
| COC[C@H](C)Nc1ncc2c(-c3ccnc(C)c3)cc([C@H]3CC[C@@H](O)CC3)n2n1 [Compound 183] | 0.1 to 1 µM | 1 to 10 µM |
| COC[C@H](C)Nc1ncc2c(-c3ccc(C4(N5CCOCC5)CC4)cc3)cc([C@H]3CC[C@H](O)CC3)n2n1 [Compound 184] | 0.1 to 1 µM | 0.1 to 1 µM |
| COC[C@H](C)Nc1ncc2c(-c3cnn(C(C)(C)c4nnc([C@@H]5CCCO5)o4)c3)cc([C@H]3CC[C@H](O)CC3)n2n1 [Compound 601] | ≤ 0.1 µM | 1 to 10 µM |
| COC[C@H](C)Nc1ncc2c(-c3cnn(C(C)(C)c4nnc([C@H]5CCCO5)o4)c3)cc([C@H]3CC[C@H](O)CC3)n2n1 [Compound 602] | ≤ 0.1 µM | 1 to 10 µM |
| COC[C@H](C)Nc1ncc2c(-c3cnn(C(C)(C)c4nnc(C(F)(F)F)o4)c3)cc([C@H]3CC[C@H](O)CC3)n2n1 [Compound 603] | ≤ 0.1 µM | 1 to 10 µM |
| COC[C@H](C)Nc1ncc2c(-c3cnn(C(C)(C)c4nnco4)c3)cc([C@H]3CC[C@H](O)CC3)n2n1 [Compound 604] | ≤ 0.1 µM | 1 to 10 µM |
| COC[C@H](C)Nc1ncc2c(-c3ccnc(N4CCC(C)(O)CC4)c3)cc([C@H]3CC[C@H](O)CC3)n2n1 [Compound 605] | ≤ 0.1 µM | 0.1 to 1 µM |
| COC[C@H](C)Nc1ncc2c([C@H]3CC[C@H](C(=O)N4CCN(C)CC4)CC3)cc([C@H]3CC[C@H](O)CC3)n2n1 [Compound 606] | ≤ 0.1 µM | 1 to 10 µM |
| COC[C@H](C)Nc1ncc2c([C@H]3CC[C@@H](C(=O)N4CCN(C)CC4)CC3)cc([C@H]3CC[C@H](O)CC3)n2n1 [Compound 607] | ≤ 0.1 µM | 1 to 10 µM |
| C[C@@H](CC(F)(F)F)Nc1ncc2c(-c3cnn(C(C)(C)C(=O)N4CC5(COC5)C4)c3)cc([C@H]3CC[C@H](O)CC3)n2n1 [Compound 608] | ≤ 0.1 µM | ≤ 0.1 µM |
| C[C@@H](CC(F)(F)F)Nc1ncc2c(-c3cnn(C(C)(C)C(=O)C4COC4)c3)cc([C@H]3CC[C@@](C)(O)CC3)n2n1 [Compound 609] | ≤ 0.1 µM | ≤ 0.1 µM |
| C[C@@H](CC(F)(F)F)Nc1ncc2c(-c3cnn(C(C)(C)C(=O)C4COC4)c3)cc([C@H]3CC[C@](C)(O)CC3)n2n1 [Compound 610] | ≤ 0.1 µM | ≤ 0.1 µM |

Second part, the molecule after the results:

| IC50 [1] | IC50 [2] | SMILES |
| --- | --- | --- |
| ≤ 0.1 µM | 0.1 to 1 µM | COC[C@H](C)Nc1ncc2c(-c3ccc(CN4CCOCC4)cc3)cc([C@H]3CC[C@@H](O)CC3)n2n1 [Compound 163, (cis)-4-(2-(((S)-1-methoxypropan-2-yl)amino)-5-(4-(morpholinomethyl)phenyl)pyrrolo[2,1-f][1,2,4]triazin-7-yl)cyclohexanol] |
| ≤ 0.1 µM | ≤ 0.1 µM | COCC(C)Nc1ncc2c(-c3ccc(C(C)N4CCCC4)cc3)cc(C3CCC(O)CC3)n2n1 (stereo not drawn) [Compound 164] |
| ≤ 0.1 µM | ≤ 0.1 µM | COC[C@H](C)Nc1ncc2c(-c3ccc([C@H](C)N4CCCC4)cc3)cc([C@H]3CC[C@H](O)CC3)n2n1 [Compound 165] |
| ≤ 0.1 µM | ≤ 0.1 µM | COCC(C)Nc1ncc2c(-c3ccc(C(C)N4CCCC4)cc3)cc(C3CCC(O)CC3)n2n1 (stereo not drawn) [Compound 166] |
| ≤ 0.1 µM | 0.1 to 1 µM | COC[C@H](C)Nc1ncc2c(-c3cnn(CC(C)C)c3)cc([C@H]3CC[C@H](O)CC3)n2n1 [Compound 167] |
| ≤ 0.1 µM | 1 to 10 µM | COC[C@H](C)Nc1ncc2c(-c3ccc(C#N)c(F)c3)cc([C@H]3CC[C@H](O)CC3)n2n1 [Compound 169] |
| ≤ 0.1 µM | ≤ 0.1 µM | COC[C@H](C)Nc1ncc2c(-c3ccc(C4(C(=O)N5CCOCC5)CC4)cc3)cc([C@H]3CC[C@H](O)CC3)n2n1 [Compound 171] |
| ≤ 0.1 µM | ≤ 0.1 µM | COCC(C)Nc1ncc2c(-c3ccc(C4(C(=O)N5CCS(=O)(=O)CC5)CC4)cc3)cc(C3CCC(O)CC3)n2n1 (stereo not drawn) [Compound 172] |
| ≤ 0.1 µM | 0.1 to 1 µM | COC[C@H](C)Nc1ncc2c(-c3ccc(C4(C(=O)O)CC4)cc3)cc([C@H]3CC[C@H](O)CC3)n2n1 [Compound 173] |
| ≤ 0.1 µM | ≤ 0.1 µM | COCC(C)Nc1ncc2c(-c3ccc(C(C)N4CCOCC4)cc3)cc(C3CCC(O)CC3)n2n1 (stereo not drawn) [Compound 182] |
| ≤ 0.1 µM | 0.1 to 1 µM | COC[C@H](C)Nc1ncc2c(-c3cnn(Cc4nnc(C)s4)c3)cc([C@H]3CC[C@H](O)CC3)n2n1 [Compound 596] |
| ≤ 0.1 µM | 0.1 to 1 µM | C[C@@H](COC(F)F)Nc1ncc2c(-c3ccnc(N4CCO[C@@H](C(C)(C)O)C4)c3)cc([C@H]3CC[C@H](O)CC3)n2n1 [Compound 597] |
| ≤ 0.1 µM | 0.1 to 1 µM | C[C@@H](COC(F)F)Nc1ncc2c(-c3ccnc(N4CCOC(C(C)(C)O)C4)c3)cc([C@H]3CC[C@H](O)CC3)n2n1 (stereo partly drawn) [Compound 598] |
| ≤ 0.1 µM | 1 to 10 µM | COC[C@H](C)Nc1ncc2c(-c3cnn(C(C)(C)c4nnc(C(F)F)o4)c3)cc([C@H]3CC[C@H](O)CC3)n2n1 [Compound 599] |
| ≤ 0.1 µM | 1 to 10 µM | COC[C@H](C)Nc1ncc2c(-c3cnn(C(C)(C)c4nnc(C(C)C)o4)c3)cc([C@H]3CC[C@H](O)CC3)n2n1 [Compound 600] |
